Results as given in EP0095454A2, “Nuclens-substituted pyrogallol derivatives” (Gerot-Pharmazeutika Gesellschaft m.b.H., priority 1982, dated 1983).
Structures can show the parent of a compound that is named as a salt.

What was measured:
ß-Adrenozeptor = test: Attenuation of the positive chronotropic effect of isoprenaline in the conscious dog; format: in vivo, Hund; details: intensity relative to the known ß-blocker Atenolol at the same dose
Procedure: (§1) Sobewirkt z.B. das Hydrochlorid von 2,2-Dimethyl-4- (2' hydroxy-3'-tert.butylaminopropoxy)-1,3-benzodioxol am wachen Hund eine 40-fach intensivere Abschwächung der positiv chronotropen Isoprenalinwirkung als der bekannte B-Blocker Atenolol in gleicher Dosierung und ergibt im Writhing-Test nach Huntingdon mit einer ED 50 von nur 8 mg/kg (Maus, oral) eine gute analgetische Wirkung. Vergleicht man diese im Writhina-Test mit der von bekannten Analgetika, dann zeigt sich die Überlegenheit des neuen Wirkstoffes: […]

Maus = test: Writhing test according to Huntingdon (analgesia); format: in vivo; details: Mus musculus, oral
Procedure: as §1

CC(C)(C)NCC(O)COc1cccc2c1OC(C)(C)O2 (centres unmarked) [2,2-Dimethyl-4-(2'-hydroxy-3'-tert.butylamino--propoxy)-1,3-benzodioxol]
Abschwächung der positiv chronotropen Isoprenalinwirkung (ß-Adrenozeptor): 40 -fach | ED50 (Maus): 8 mg/kg

Cc1c(N(C)CS(=O)(=O)O)c(=O)n(-c2ccccc2)n1C [Metamizol-Natrium]
ED50 (Maus): 10.6 mg/kg

NC(=O)c1ccccc1OCC(=O)O [Natriumsalz der Salicylamid-O-essigsäure]
ED50 (Maus): 11.5 mg/kg

CCOC(=O)C1(c2ccccc2)CCN(C)CC1 [Pethidin-Hydrochlorid]
ED50 (Maus): 13.3 mg/kg
